Five molecules from patent publication US20120053112A1, “METHODS AND COMPOSITIONS RELATED TO THE REGULATION OF GOBLET CELL DIFFERENTIATION, MUCUS PRODUCTION AND MUCUS SECRETION” (CHILDREN'S HOSPITAL MEDICAL CENTER, priority 2009, published 2012) can be followed below.

Experiment [1] has as its system MUC5AC mRNA in Flag-SPDEF-GFP HBEC cells. The experiment in a line: Effect of inhibitors on MUC5AC expression in SPDEF-expressing HBEC cells on air-liquid interface (real-time PCR). The experiment is classed as cell-based, human. The note with it: for Inhibitor concentrations at which MUC5AC mRNA was not detected: SPDEF-expressing HBEC cells; for Concentration of dose curve with no detection of MUC5AC mRNA (starred): Flag-SPDEF-GFP HBEC on ALI, inhibitor added upon induction of ALI, RNA after 48 hours, TAQMAN real-time PCR, FIG. 19. As to the method:
Inhibitors were added to media upon induction of ALI and RNA was isolated after 48 hours. (A) p38 MAPK inhibitor (SB239063) dose curve: 0.5, 1, 2.5, 5*, 10* μM. (B) PI3K inhibitor (LY294002) dose curve: 0.5, 1, 2.5, 5*, 10*, 25* μM. (C) mTor inhibitor (Rapamycin) dose curve: 1, 5, 10, 25, 50*, 100* nM. *=No detection of MUC5AC mRNA at these concentrations as determined by TAQMAN® real-time PCR (Applied Biosystems, Foster City, Calif.).
Expression levels of MUC5AC were measured in SPDEF-expressing HBEC cells treated with the p38 MAPK inhibitor SB239063. MUC5AC mRNA was quantitated by QRT-PCR. MUC5AC mRNA was not detected at inhibitor concentrations ≧5 uM.
Expression levels of MUC5AC in SPDEF-expressing HBEC cells treated with rapamycin. MUC5AC mRNA was not detected at inhibitor concentrations ≧50 nM.
Expression levels of MUC5AC in SPDEF-expressing HBEC cells treated with the PI3K inhibitor LY294002. MUC5AC mRNA was not detected at inhibitor concentrations ≧[…].
Using Agr2 as a readout of SPDEF, the effects of p38 MAPK inhibitor SB239063, PI3K inhibitor LY294002, and mTor inhibitor rapamycin in human bronchiolar epithelial cells (HBEC) were investigated. In vitro preparations were maintained at the ALI for 48 hours prior to taking Agr2 measurements.
To test for small molecule inhibitors, HBEC cells expressing lentiviral SPDEF constructs were treated with the p38 MAP kinase inhibitor, SB239063. MUC5AC mRNA was quantitated by QRT-PCR. SPDEF-dependent MUC5AC mRNA was inhibited by the p38 MAP kinase inhibitor (FIG. 22).
(In general: Quantitative PCR measures a nucleic acid by following its amplification.)

Experiment [2] concerns mouse Agr2 1.6 Kb promoter. The note with it: U0126 at 20 μM and 10 μM; 36 hour transfection, aSTEpC; DMSO vehicle control.
Procedure: Thirty-six hour transfection of adult sheep tracheal epithelial cells (aSTEpC) with Agr2-luciferase and expression vectors encoding SPDEF and Foxa3. MAPK inhibitor (U0126) was added at a concentration of 20 μM and 10 μM (DMSO as vehicle control).
Thirty-six hour transfection of adult sheep tracheal epithelial cells (aSTEpCs) with Agr2-luciferase and expression vectors encoding SPDEF and Foxa3 were performed. A MAPK inhibitor (U0126) was added at a concentration of 20 μM and 10 μM (using DMSO as a vehicle control). MAPK inhibitor (U0126) effects on the activity of the mouse Agr2 1.6 Kb promoter were analyzed.
Promoter reporter constructs were co-transfected into primary sheep tracheal epithelial cells (aSTEpC) with CMV-13-Gal plasmid (Clontech, Palo Alto, Calif.) and/or transcription factor expression plasmid using Lipofectamine 2000 (Invitrogen, Carlsbad, Calif.) as previously described^6. Growth media was changed into a differentiation media (MTEC/Nu, mouse tracheal epithelial cells culture media, 2% Nu serum)^39 after transfection. Cell lysates were collected for luciferase activity assay 24 hours after transfection. All transfection assays were performed with primary sheep adult tracheal epithelial cells at passage 3 or 4. Relative promoter activities were normalized to transfection efficiency assayed by β-galactosidase activity and shown as mean±S.D.
Experiment [3] relates to SPDEF in primary mouse tracheal epithelial cells. Kind of experiment: IL-13 induction of SPDEF in primary mouse tracheal epithelial cells at air-liquid interface (immunohistochemistry). The experiment is classed as cell-based. Conditions: IL-13 10 ng/ml; ALI culture, 3 and 7 days; FIG. 14. The procedure: Immunohistochemical staining of SPDEF in primary mouse tracheal epithelial cells cultured under an air-liquid interface (ALI) condition in the presence or absence of IL-13 (10 ng/ml). Expression of SPDEF was detected after 3 days (upper panel) and 7 days (lower panel) after ALI culture. Scale bar: 50 μm.
The air-liquid interface culture of mouse tracheal epithelial cells was performed as previously described^39. The mouse IL-13 used for in vitro culture was purchased from R&D System (Minneapolis, Minn.). The air-liquid interface culture of the HEBCs was similar to procedures previously described^40.

Several values for one entry are separate records, joined by “and”; a condition that tells them apart may be missing. Equal entries are not always repeated. Entries after “also recorded” stand apart in the source; their conditions may differ.

For the molecule `O=c1cc(N2CCOCC2)oc2c(-c3ccccc3)cccc12` [LY294002], in experiment [1] (QRT-PCR, FIGS. 22, 25), the “Inhibitor concentrations at which MUC5AC mRNA was not detected” value is ≥ 10 µM.

As for `CO[C@H]1C[C@@H]2CC[C@@H](C)[C@@](O)(O2)C(=O)C(=O)N2CCCC[C@H]2C(=O)O[C@H]([C@H](C)C[C@@H]2CC[C@@H](O)[C@H](OC)C2)CC(=O)[C@H](C)/C=C(\C)[C@@H](O)[C@@H](OC)C(=O)[C@H](C)C[C@H](C)/C=C/C=C/C=C/1C` [Rapamycin], in experiment [1], the “Concentration of dose curve with no detection of MUC5AC mRNA (starred)” value is 50 nM and 100 nM. For the same molecule, the “Inhibitor concentrations at which MUC5AC mRNA was not detected” value in experiment [1] (FIG. 24) was ≥ 0.05 µM.

Consider `COc1nccc(-c2c(-c3ccc(F)cc3)ncn2C2CCC(O)CC2)n1` (centres unmarked) [SB239063], for which the “Concentration of dose curve with no detection of MUC5AC mRNA (starred)” value in experiment [1] was 5000 nM and 10000 nM. The “Effect on SPDEF-mediated MUC5AC (Muc5A/C) activation / mRNA” value in experiment [1] (HBEC in vitro, result in words) is listed as “highly active; also recorded: inhibited”. The “Inhibitor concentrations at which MUC5AC mRNA was not detected” value in experiment [1] (QRT-PCR, FIGS. 22, 25) is ≥ 5 µM.

Regarding `N#CC(=C(/N)Sc1ccccc1N)/C(C#N)=C(\N)Sc1ccccc1N` [U0126], in experiment [2], the “Effect on activation of SPDEF or Agr2 (Agr2 promoter luciferase activity)” value is given as “inhibited”.

B1: IL-13: mouse IL-13 cytokine purchased from R&D System, used for in vitro culture (protein, UniProt P20109 19-131, looked up)
Interleukin-13: APGPVPRSVSLPLTLKELIEELSNITQDQTPLCNGSMVWSVDLAAGGFCVALDSLTNISNCNAIYRTQRILHGLCNRKAPTTVSSLPDTKIEVAHFITKLLSYTKQLFRHGPF
For B1, the SPDEF expression result in experiment [3] was “dramatically induced”.
